How the values were obtained:
EphB4 promoter = assay: Treatment of SW620, EphB4 promoter methylation by PCR on bisulfite treated DNA with methylation specific primers; type: cell-based; details: SW620 cells
Method: (§1) Top panel: changes in gene expression a measured by RT-PCR. Lower panel: changes in methylation a measure by PCR on bisulfite treated DNA with methylation specific primers.
(§2) Cultures of the colorectal cancer cell line SW620, characterized by a low expression level and methylation the EphB4 promoter; were treated during 72 h with different concentrations of 5aza- cytidin.

[1] = test system: EphB4 gene expression in SW620 cells; assay: Treatment of colorectal cancer cell line SW620, EphB4 gene expression by RT-PCR; type: cell-based; details: 72 h
Method: as §1, §2

Nc1ncn([C@@H]2O[C@H](CO)[C@@H](O)[C@H]2O)c(=O)n1 [5-aza-cytidine]
methylation of the EphB4 promoter (EphB4 promoter): reduces the methylation | most effective dose for increase of EphB4 gene expression [1]: 10 µM | level of EphB4 gene expression ([1]; different concentrations): increase

Reference: patent publication US20100035762A1, “Prognostic Methods in Colorectal Cancer” (Oryzon Genomics, S.A., priority 2006, published 2010)
